Reference: ChEMBL document CHEMBL5653631, “A Potent and Selective ULK1 Inhibitor Suppresses Autophagy and Sensitizes Cancer Cells to Nutrient Stress” (iScience, 2018)

Legend:
Homo sapiens = species on record: Homo sapiens; assay: Inhibition of human recombinant KHS1 at 40 nM in presence of ATP by radiometric assay relative to control
[1] = molecular target: Cyclin-dependent kinase 2 (Homo sapiens) (UniProt P24941); assay: Inhibition of human recombinant CDK2 at 40 nM in presence of ATP by radiometric assay relative to control
[2] = molecular target: Serine/threonine-protein kinase 10 (Homo sapiens) (UniProt O94804); assay: Inhibition of human recombinant LOK at 40 nM in presence of ATP by radiometric assay relative to control
Serine/threonine-protein kinase 10 (Homo sapiens), sequence (O94804 whole entry, looked up): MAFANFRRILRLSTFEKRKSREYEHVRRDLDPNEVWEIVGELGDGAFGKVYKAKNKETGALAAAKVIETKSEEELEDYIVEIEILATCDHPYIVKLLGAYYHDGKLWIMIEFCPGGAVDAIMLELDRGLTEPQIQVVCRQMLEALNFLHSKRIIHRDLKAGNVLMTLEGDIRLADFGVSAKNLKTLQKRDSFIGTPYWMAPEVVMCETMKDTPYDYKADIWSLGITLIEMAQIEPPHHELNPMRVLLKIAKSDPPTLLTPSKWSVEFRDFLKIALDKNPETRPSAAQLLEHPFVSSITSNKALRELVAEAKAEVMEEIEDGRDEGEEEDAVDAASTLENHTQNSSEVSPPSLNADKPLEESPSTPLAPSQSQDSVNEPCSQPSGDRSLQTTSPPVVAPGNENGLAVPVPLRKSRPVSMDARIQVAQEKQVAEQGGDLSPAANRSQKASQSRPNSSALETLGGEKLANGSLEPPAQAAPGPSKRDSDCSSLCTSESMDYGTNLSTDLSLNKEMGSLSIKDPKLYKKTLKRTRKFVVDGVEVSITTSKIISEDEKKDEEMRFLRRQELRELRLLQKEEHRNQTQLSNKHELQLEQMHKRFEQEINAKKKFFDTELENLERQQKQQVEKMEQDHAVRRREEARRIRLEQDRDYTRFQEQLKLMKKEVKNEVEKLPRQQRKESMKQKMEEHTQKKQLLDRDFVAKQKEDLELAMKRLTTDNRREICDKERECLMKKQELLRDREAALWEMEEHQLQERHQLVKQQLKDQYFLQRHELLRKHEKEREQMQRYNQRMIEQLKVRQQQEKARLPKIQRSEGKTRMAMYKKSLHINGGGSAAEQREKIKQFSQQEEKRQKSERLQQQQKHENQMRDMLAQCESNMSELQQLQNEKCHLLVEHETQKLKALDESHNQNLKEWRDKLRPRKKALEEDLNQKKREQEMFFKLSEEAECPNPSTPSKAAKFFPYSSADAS

[3] = molecular target: T1, Mitogen-activated protein kinase kinase kinase kinase 2 (Homo sapiens) (UniProt Q12851); assay: Inhibition of human recombinant GCK at 15 nM in presence of ATP by radiometric assay relative to control
T1 sequence (whole entry): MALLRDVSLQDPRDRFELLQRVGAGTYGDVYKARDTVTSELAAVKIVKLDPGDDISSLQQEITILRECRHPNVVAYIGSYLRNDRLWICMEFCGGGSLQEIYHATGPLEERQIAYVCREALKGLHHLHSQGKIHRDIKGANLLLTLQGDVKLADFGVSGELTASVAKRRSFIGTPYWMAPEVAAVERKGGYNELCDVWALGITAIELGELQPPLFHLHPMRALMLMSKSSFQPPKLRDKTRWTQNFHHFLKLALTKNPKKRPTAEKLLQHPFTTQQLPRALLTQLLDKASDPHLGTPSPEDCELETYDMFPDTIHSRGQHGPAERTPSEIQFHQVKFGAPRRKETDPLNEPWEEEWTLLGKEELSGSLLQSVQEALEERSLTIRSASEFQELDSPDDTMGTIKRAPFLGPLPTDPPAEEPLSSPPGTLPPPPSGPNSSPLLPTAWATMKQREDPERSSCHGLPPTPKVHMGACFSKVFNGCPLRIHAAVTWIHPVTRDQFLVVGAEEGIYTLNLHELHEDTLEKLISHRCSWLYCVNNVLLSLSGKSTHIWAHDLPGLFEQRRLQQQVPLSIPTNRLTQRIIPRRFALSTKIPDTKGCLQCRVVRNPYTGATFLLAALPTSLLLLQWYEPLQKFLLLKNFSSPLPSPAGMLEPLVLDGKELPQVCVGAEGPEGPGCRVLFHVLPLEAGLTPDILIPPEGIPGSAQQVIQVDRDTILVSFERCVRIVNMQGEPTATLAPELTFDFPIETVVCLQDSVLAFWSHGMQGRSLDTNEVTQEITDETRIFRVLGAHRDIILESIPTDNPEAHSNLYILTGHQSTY

[4] = molecular target: T2, Receptor-interacting serine/threonine-protein kinase 1 (Homo sapiens) (UniProt Q13546); assay: Inhibition of human recombinant RIPK1 at 500 nM in presence of ATP by radiometric assay relative to control
T2 sequence (whole entry): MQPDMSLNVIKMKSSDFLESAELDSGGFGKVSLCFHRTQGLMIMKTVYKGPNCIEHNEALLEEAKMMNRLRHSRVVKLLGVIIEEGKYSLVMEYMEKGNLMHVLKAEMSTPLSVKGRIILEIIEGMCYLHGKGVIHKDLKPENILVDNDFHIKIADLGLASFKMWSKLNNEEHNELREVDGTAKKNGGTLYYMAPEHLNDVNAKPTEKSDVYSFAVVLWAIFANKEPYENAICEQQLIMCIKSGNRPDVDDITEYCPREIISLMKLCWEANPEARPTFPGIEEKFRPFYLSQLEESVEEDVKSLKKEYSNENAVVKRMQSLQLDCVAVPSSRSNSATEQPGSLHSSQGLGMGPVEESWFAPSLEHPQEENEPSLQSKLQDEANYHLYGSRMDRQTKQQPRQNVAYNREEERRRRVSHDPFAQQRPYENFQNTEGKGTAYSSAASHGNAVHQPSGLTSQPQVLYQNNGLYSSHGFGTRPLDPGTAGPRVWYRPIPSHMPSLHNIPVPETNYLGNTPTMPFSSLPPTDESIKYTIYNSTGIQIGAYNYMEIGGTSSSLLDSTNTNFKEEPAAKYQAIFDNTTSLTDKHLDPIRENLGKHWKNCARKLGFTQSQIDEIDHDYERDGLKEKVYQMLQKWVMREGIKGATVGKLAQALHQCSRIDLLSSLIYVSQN

[5] = molecular target: Ribosomal protein S6 kinase alpha-2 (Homo sapiens) (UniProt Q15349); assay: Inhibition of human recombinant RSK3 at 500 nM in presence of ATP by radiometric assay relative to control
Ribosomal protein S6 kinase alpha-2 (Homo sapiens), sequence (Q15349 whole entry): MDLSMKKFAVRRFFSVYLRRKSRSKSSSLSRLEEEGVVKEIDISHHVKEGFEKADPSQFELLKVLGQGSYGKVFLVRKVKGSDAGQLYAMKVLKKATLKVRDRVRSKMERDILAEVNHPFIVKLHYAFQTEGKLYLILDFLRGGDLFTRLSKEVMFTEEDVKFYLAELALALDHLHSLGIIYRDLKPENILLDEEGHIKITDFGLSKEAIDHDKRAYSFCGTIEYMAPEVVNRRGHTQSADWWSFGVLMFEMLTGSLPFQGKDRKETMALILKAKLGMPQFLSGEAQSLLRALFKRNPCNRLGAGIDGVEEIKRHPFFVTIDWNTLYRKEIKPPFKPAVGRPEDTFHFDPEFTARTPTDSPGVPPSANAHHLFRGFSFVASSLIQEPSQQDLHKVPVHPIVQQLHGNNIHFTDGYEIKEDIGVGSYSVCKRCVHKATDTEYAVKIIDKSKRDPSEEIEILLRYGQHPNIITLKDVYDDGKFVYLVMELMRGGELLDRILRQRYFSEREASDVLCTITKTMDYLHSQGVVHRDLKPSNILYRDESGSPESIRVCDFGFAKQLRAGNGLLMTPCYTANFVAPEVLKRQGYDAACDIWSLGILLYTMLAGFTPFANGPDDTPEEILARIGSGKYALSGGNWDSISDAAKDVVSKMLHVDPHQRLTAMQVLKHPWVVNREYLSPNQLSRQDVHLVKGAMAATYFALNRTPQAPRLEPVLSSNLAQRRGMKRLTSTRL

[6] = molecular target: T3, Rhodopsin kinase GRK1 (Homo sapiens) (UniProt Q15835); assay: Inhibition of human recombinant RHOK at 500 nM related to control ULK1
T3 sequence (whole entry): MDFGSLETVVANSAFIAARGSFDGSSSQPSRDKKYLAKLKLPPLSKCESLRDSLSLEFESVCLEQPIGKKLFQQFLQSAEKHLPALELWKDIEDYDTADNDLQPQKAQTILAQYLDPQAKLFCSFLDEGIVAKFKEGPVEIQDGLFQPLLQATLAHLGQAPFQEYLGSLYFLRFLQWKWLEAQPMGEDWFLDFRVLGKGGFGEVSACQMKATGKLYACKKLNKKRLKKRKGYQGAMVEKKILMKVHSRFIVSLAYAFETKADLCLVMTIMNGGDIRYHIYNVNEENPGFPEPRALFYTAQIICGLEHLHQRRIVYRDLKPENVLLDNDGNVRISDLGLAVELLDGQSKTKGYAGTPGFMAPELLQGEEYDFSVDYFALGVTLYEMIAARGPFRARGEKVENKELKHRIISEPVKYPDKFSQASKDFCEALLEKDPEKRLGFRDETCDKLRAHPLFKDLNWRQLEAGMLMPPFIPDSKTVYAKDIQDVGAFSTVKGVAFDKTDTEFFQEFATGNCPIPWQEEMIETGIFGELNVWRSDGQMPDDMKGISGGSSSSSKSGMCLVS

For O=C(N[C@@H](C1CC1)C(F)(F)F)c1cc(-c2cnn3cc(-c4ccc(F)cc4)cnc23)cs1, the inhibition (Homo sapiens) was 0%, the inhibition [1] was 29% and the inhibition [2] was 0%.

CC(C)[C@H](NC(=O)c1cc(-c2cnn3cc(-c4ccc(OCCN5CCCCC5)cc4)cnc23)cs1)C(F)(F)F showed an inhibition [3] of 34%.

For CNC(=O)c1ccccc1Oc1nc(Nc2cc(OC)c(OC)c(OC)c2)ncc1Br, the inhibition [4] was 7%, the inhibition [5] was 49% and the fold change (FC) [6] was 0.
